Experimental data as given in paper PMC8482623 (Nature structural & molecular biology, 2020).

How the values were obtained:
[1] = biological target: T1, mBcs1 (full-length mouse Bcs1; mBcs1-His) (Mus musculus, UniProt Q9CZP5); assay: blue-native PAGE band shift; assay type: binding; settings: conformational change seen as band shift
T1 sequence (Q9CZP5 1-418): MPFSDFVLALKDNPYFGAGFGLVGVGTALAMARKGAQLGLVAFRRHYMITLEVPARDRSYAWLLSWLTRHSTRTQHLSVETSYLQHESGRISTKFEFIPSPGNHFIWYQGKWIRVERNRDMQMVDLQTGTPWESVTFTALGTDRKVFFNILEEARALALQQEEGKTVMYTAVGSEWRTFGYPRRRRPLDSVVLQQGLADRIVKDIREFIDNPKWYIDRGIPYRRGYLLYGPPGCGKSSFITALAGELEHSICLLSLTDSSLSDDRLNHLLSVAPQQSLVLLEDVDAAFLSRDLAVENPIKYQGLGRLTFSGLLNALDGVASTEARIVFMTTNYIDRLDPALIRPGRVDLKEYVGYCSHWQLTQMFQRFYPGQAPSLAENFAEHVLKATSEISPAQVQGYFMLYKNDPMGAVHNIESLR

ΔNmBcs1 = ΔNmBcs1 (Mus musculus, UniProt Q9CZP5); assay: X-ray crystal structure, […] Å; settings: 2 mM AMP-PNP, 20 mM MgCl2, pH 7.5; nucleotide-binding site

`Nc1ncnc2c1ncn2[C@@H]1O[C@H](COP(=O)(O)OP(=O)(O)NP(=O)(O)O)[C@@H](O)[C@H]1O` [AMP-PNP] was tested, and the “blue-native PAGE band shift” value [1] was “incubation of ATPγS or AMP-PNP (nonhydrolyzable ATP) caused a shift in the protein band” and the “X-ray crystal structure, 2.2 Å” value (ΔNmBcs1) was “yielding a heptameric structure with clearly visible bound AMP-PNP”.
